In patent US20200323215A1, “PESTICIDE FORMULATIONS DERIVED FROM COMBINATIONS OF CARRAGEENANS, SORBIC ACIDS, AND BICARBONATES” (Circadian Crop Sciences LLC, priority 2019, published 2020):

Assays:
fusarium = conditions: in the literature; cited from earlier work
powdery mildew = assay: Sprays against powdery mildew infestations on nursery grown plants; assay type: in vivo; conditions: for eliminating infestations of powdery mildew: single ingredient sprayed at 1 tablespoon per gallon of water, nursery grown roses, gerbera daisies, ornamental peas, trumpet vines, chrysanthemums, grapevines
Description: One hundred grams of potassium bicarbonate is blended with one hundred grams of carrageenan.

[1] = system: Tomato Russet Mite (Aculops lycopersici); conditions: sprays on young tomato plants naturally infested
Description: Fifty grams of potassium sorbate and fifty grams of sodium bicarbonate are mixed with one hundred grams of carrageenan.

Row | Structure (SMILES) | efficacy against fusarium, each product separately (fusarium) | eliminating infestations of powdery mildew (powdery mildew) | effect on Tomato Russet Mites [1] | effect on powdery mildew that had overwintered on ornamental pea leaves (powdery mildew; overwintered powdery mildew, ornamental pea leaves)
1 | O=C([O-])O.[K+] [potassium bicarbonate] | shown efficacy | – | – | –
2 | C/C=C/C=C/C(=O)[O-].[K+] [potassium sorbate] | – | ineffective | no effect | –
3 | O=C([O-])O.[Na+] [sodium bicarbonate] | – | ineffective | – | unaffected
